The values below come from PMC6450621, “Changes of drug pharmacokinetics mediated by downregulation of kidney organic cation transporters Mate1 and Oct2 in a rat model of hyperuricemia” (PLoS ONE, 2019).

Data set [1] can be described thus: Pharmacokinetic study after intravenous administration in control and hyperuricemic rats (plasma, urine, kidney).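 As to all read-outs here: Pentobarbital-anesthetized rats with cannulated bladder, jugular plasma, timed urine and saline kidney homogenate assayed by HPLC or LC-MS/MS, Kp as kidney over plasma level at 4 h.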 Conditions: for AUC0-4 / Kp, kidney / Kp at 4 h: creatinine; for Kp at 4 h / AUC(0-t) / concentration at 0.5 min / concentration at 30 min / concentration at 60 min: rat; for Kp at 4 h: kidney; for AUC(0-t) / concentration at 0.5 min / concentration at 30 min / concentration at 60 min: plasma; for concentration at 0.5 min / concentration at 30 min / concentration at 60 min: Plasma concentration.
Description: Rats were anesthetized with pentobarbital, and the bladder was cannulated with polyethylene tubing (inside diameter 0.5 mm, outside diameter 0.8 mm). […] Blood was drawn through the jugular vein, and plasma was obtained by centrifugation at 3,000 rpm for 10 min at 4°C. Urine was collected at the designated times. […] All samples were stored at -80°C until measurement.
If necessary, plasma and urine were diluted 10- to 100-fold and 10- to 10000-fold with saline, respectively, for high-performance liquid chromatography (HPLC) or liquid chromatography/tandem mass spectrometry (LC-MS/MS) measurement. […] Prepared samples were mixed for 1 min and centrifuged at 15,000 rpm for 5 min at 4°C. The resultant supernatant was used for LC-MS/MS analysis. The LC-MS/MS system consisted of a triple-quadrupole mass spectrometer (API 3200^TM, SCIEX, Foster City, CA) coupled with an ultrafast liquid chromatography system (LC-20AD, Shimadzu, Kyoto, Japan). […] For metformin, the mobile phase consisted of 0.1% formic acid and acetonitrile (30 : 70), and the flow rate was 0.4 mL/min.
The plasma concentration-time data were analyzed by non-compartmental analysis. The area under the plasma concentration-time curve (AUC0-4) was obtained by application of the trapezoidal rule from time 0 to 4 h. AUC from 0 to infinity (AUCinf) was estimated by extrapolation to infinity.

Data set [2] is described as follows: Plasma concentration of oxonic acid and adenine in hyperuricemic rats. Format: in vivo, rat. To be noted: hyperuricemic rats given oral oxonic acid […] and adenine 0.1 g/kg; detection limit 100 μM for oxonic acid.
Another data set has as its target T1, human MATE1 (Homo sapiens, UniProt Q96FL8).
T1 construct: expressed in transfected cells; host or cells: HEK293 (HEK293/hMATE1; gift from Dr. Inoue, Tokyo University of Pharmacy and Life Science)
T1 sequence (Q96FL8 1-570): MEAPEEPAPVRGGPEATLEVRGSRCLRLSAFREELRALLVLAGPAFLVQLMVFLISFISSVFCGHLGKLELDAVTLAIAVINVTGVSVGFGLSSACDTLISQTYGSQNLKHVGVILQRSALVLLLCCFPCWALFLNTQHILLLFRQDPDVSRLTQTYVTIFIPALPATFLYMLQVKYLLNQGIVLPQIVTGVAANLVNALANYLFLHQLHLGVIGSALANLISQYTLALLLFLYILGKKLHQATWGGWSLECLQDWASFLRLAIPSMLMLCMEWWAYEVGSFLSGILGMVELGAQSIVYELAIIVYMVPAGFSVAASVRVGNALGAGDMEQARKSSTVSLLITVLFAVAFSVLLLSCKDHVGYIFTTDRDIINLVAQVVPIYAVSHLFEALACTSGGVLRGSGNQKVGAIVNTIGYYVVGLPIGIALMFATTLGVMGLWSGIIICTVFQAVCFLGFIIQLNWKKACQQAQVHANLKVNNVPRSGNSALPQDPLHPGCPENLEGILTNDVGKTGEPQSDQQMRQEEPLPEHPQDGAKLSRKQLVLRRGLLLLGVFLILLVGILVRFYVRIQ
Put plainly: Uptake of [3H]MPP+ by MATE1-expressing HEK293 cells. Conditions: for MATE1-mediated uptake of MPP+, % of Control: after subtraction of uptake by mock cells. Format: cell-based. As to the method:
HEK293 cells transfected with human MATE1 (HEK293/hMATE1) and vector alone (mock) were gifts from Dr. Inoue (Tokyo University of Pharmacy and Life Science). […] HEK293/mock and HEK293/hMATE1 cells were plated at a density of 3.0 × 10^5 cells/well on 24-well plates and cultured for two days before an uptake assay. […] Radioactivity was measured with a liquid scintillation counter (Hitachi Aloka Medical, Tokyo, Japan). Part of the lysate was used for the determination of total protein amount with Bio-Rad protein assay dye reagent. Uptake of MPP^+ was expressed as a cell-to-medium ratio (μL/mg protein) obtained by dividing the uptake amount by the concentration of substrate in the TM. Percentages of control were calculated as the ratio of MATE1-mediated uptake of MPP^+ that obtained after subtraction of the uptake of MPP^+ by mock cells in compound treated groups to that in control group.

The test system of another data set is Mock cells. Put plainly: Uptake of MPP+ by mock cells (background for MATE1-expressing cells). Format: cell-based. To be noted: 100 µM; replicates and mean. The procedure: Dunnett's test was used for uptake study to compare the control group to groups treated with drugs.
Percentages of control were calculated as the ratio of MATE1-mediated uptake of MPP^+ that obtained after subtraction of the uptake of MPP^+ by mock cells in compound treated groups to that in control group.

A short description of data set [3]: Inulin clearance in control and hyperuricemic rats. Conditions: Day 10, inulin 100 mg/kg iv. The data set is classed as in vivo, rat. As to the method:
Urine was collected at the designated times. […] All samples were stored at -80°C until measurement.
Inulin was measured by the anthrone method. After adding 500 mL concentrated sulfuric acid to 200 mL distilled water and cooling the solution to room temperature, 1.4 g anthrone (Sigma Aldrich) was added to it at 56°C to prepare the anthrone reagent. An aliquot of the reagent (400 μL) was added to 10 μL of plasma or urine suitably diluted with saline. The tube containing the sample was immersed in ice-cold water, shaken well and then allowed to react for 10 min at 56°C. The vial was immersed in ice-cold water to stop the reaction. The absorbance at 636 nm was measured with a spectrophotometer (UVmini1240, Shimadzu).

The mark [4] stands for this setting: control rats, individual rats and mean.
[5] abbreviates: hyperuricemic rats, individual rats and mean.

“And” between values parts separate entries of the source, which are not always exact repeats. Equal values may be shown once.

A word on the Kp: it is tissue or fluid exposure divided by exposure in the circulation. A word on the AUC(0-t): it is exposure summed from dosing to a finite time, without extrapolation to infinity. The low end stands for low exposure, the high end for high exposure. With `CN1CC(=O)NC1=N` [Creatinine, creatinine], the Plasma concentration in data set [1] (control rats, 0.5 min after iv metformin 30 mg/kg or cephalexin 10 mg/kg (creatinine endogenous), individual rat) is 19.0 µM and 21.0 µM; in data set [1] (control rats, 30 min after iv metformin 30 mg/kg or cephalexin 10 mg/kg (creatinine endogenous), individual rat), 20.1 µM and 20.4 µM; in data set [1] (control rats, 60 min after iv metformin 30 mg/kg or cephalexin 10 mg/kg (creatinine endogenous), individual rat), 18.9 µM and 19.0 µM; in data set [1] (hyperuricemic rats, 0.5 min after iv metformin 30 mg/kg or cephalexin 10 mg/kg (creatinine endogenous), individual rat), 36.4 µM and 30.6 µM; in data set [1] (hyperuricemic rats, 30 min after iv metformin 30 mg/kg or cephalexin 10 mg/kg (creatinine endogenous), individual rat) it was 34.4 µM and 30.6 µM; in data set [1] (hyperuricemic rats, 60 min after iv metformin 30 mg/kg or cephalexin 10 mg/kg (creatinine endogenous), individual rat) it was 34.5 µM and 36.2 µM. Moreover, the “Urinary excretion (cumulative)” value in data set [1] (control rats, 10 min, individual rats and mean) was 0.04 mg and 0.06 mg and 0.09 mg and 0.07 mg; in data set [1] (control rats, 20 min, individual rats and mean), 0.10 mg and 0.12 mg and 0.16 mg and 0.13 mg; in data set [1] (control rats, 30 min, individual rats and mean), 0.13 mg and 0.19 mg and 0.22 mg and 0.18 mg; in data set [1] (control rats, 60 min, individual rats and mean), 0.18 mg and 0.30 mg and 0.32 mg and 0.27 mg; in data set [1] (control rats, 120 min, individual rats and mean), 0.46 mg and 0.61 mg and 0.52 mg and 0.53 mg; in data set [1] (control rats, 240 min, individual rats and mean), 0.98 mg and 1.44 mg and 1.32 mg and 1.25 mg. Further, the “Urinary excretion (cumulative)” value in data set [1] (hyperuricemic rats, 10 min, individual rats and mean) is 0.12 mg (3×) and 0.11 mg; in data set [1] (hyperuricemic rats, 20 min, individual rats and mean), 0.19 mg (3×) and 0.20 mg; in data set [1] (hyperuricemic rats, 30 min, individual rats and mean), 0.26 mg (2×) and 0.28 mg and 0.25 mg; in data set [1] (hyperuricemic rats, 60 min, individual rats and mean) it was 0.42 mg and 0.39 mg and 0.44 mg and 0.43 mg; in data set [1] (hyperuricemic rats, 120 min, individual rats and mean), 0.69 mg and 0.58 mg and 0.73 mg and 0.76 mg; in data set [1] (hyperuricemic rats, 240 min, individual rats and mean) it was 1.22 mg and 0.95 mg and 1.24 mg and 1.48 mg. Also, the AUC0-4 in data set [1] (setting [4]) is 5400 µM·min and 5463 µM·min; in data set [1] (setting [5]), 10502 µM·min and 8634 µM·min. Besides, the “Kp, kidney” value in data set [1] (setting [4]) is 10.4 and 11.3; in data set [1] (setting [5]) it was 11.7 and 17.3. Further, the Kp at 4 h in data set [1] (intravenous, control rats, individual rats and mean) was found to be 8.8; in data set [1] (intravenous, hyperuricemic rats, individual rats and mean), 12. Moreover, the exposure AUC(0-t) in data set [1] (intravenous, AUC0-4, creatinine, control rats, individual rats and mean) was 87.6 µM·h; in data set [1] (intravenous, AUC0-4, creatinine, hyperuricemic rats, individual rats and mean), 171 µM·h; in data set [1] (iv, AUC0-4, control rats, iv metformin 30 mg/kg or cephalexin 10 mg/kg, creatinine endogenous, mean n=3) it was 89.5 µM·h; in data set [1] (iv, AUC0-4, hyperuricemic rats, iv metformin 30 mg/kg or cephalexin 10 mg/kg, creatinine endogenous, mean n=3), 163 µM·h. The concentration at 0.5 min in data set [1] (intravenous, control rats, 0.5 min after iv metformin 30 mg/kg or cephalexin 10 mg/kg (creatinine endogenous), individual rat) was 17.7 µM; in data set [1] (intravenous, control rats, 0.5 min after iv metformin 30 mg/kg or cephalexin 10 mg/kg (creatinine endogenous), mean n=3), 19.2 µM; in data set [1] (intravenous, hyperuricemic rats, 0.5 min after iv metformin 30 mg/kg or cephalexin 10 mg/kg (creatinine endogenous), individual rat), 24.6 µM; in data set [1] (intravenous, hyperuricemic rats, 0.5 min after iv metformin 30 mg/kg or cephalexin 10 mg/kg (creatinine endogenous), mean n=3) it was 30.5 µM. Further, the concentration at 30 min in data set [1] (intravenous, control rats, 30 min after iv metformin 30 mg/kg or cephalexin 10 mg/kg (creatinine endogenous), individual rat) was 19.5 µM; in data set [1] (intravenous, control rats, 30 min after iv metformin 30 mg/kg or cephalexin 10 mg/kg (creatinine endogenous), mean n=3), 20 µM; in data set [1] (intravenous, hyperuricemic rats, 30 min after iv metformin 30 mg/kg or cephalexin 10 mg/kg (creatinine endogenous), individual rat), 25.9 µM; in data set [1] (intravenous, hyperuricemic rats, 30 min after iv metformin 30 mg/kg or cephalexin 10 mg/kg (creatinine endogenous), mean n=3) it was 30.3 µM. Moreover, the concentration at 60 min in data set [1] (intravenous, control rats, 60 min after iv metformin 30 mg/kg or cephalexin 10 mg/kg (creatinine endogenous), individual rat) was found to be 22.9 µM; in data set [1] (intravenous, control rats, 60 min after iv metformin 30 mg/kg or cephalexin 10 mg/kg (creatinine endogenous), mean n=3), 20.3 µM; in data set [1] (intravenous, hyperuricemic rats, 60 min after iv metformin 30 mg/kg or cephalexin 10 mg/kg (creatinine endogenous), individual rat), 26.5 µM; in data set [1] (intravenous, hyperuricemic rats, 60 min after iv metformin 30 mg/kg or cephalexin 10 mg/kg (creatinine endogenous), mean n=3) it was 32.4 µM.
On to `Nc1ncnc2nc[nH]c12` [adenine], for which, in data set [2], the Plasma concentration entry is “lower than 100 μM”. Also, the “MATE1-mediated uptake of MPP+, % of Control” value is 68.3 % of Control and 107.0 % of Control on human MATE1 (Adenine 50 µM, replicates and mean); 89.5 % of Control and 71.0 % of Control and 100.5 % of Control at human MATE1 (Adenine 500 µM, replicates and mean); 87.0 % of Control at human MATE1 (Adenine 500 µM, replicates and mean, mean).
On to `CN/C(=N/CCSCc1nc[nH]c1C)NC#N` [cimetidine], for which the “C/M ratio of MPP+ uptake, Mock cells” value with Mock cells was 9.40 µL/mg protein and 10.25 µL/mg protein and 9.69 µL/mg protein. In addition, the “MATE1-mediated uptake of MPP+, % of Control” value on human MATE1 (100 µM, replicates and mean, 100 µM) was 5.0 % of Control and 14.6 % of Control. In addition, the “C/M ratio of MPP+ uptake, MATE1-expressing cells” value at human MATE1 (100 µM, replicates and mean) is 36.0 µL/mg protein and 18.8 µL/mg protein. The “MATE1-mediated uptake of [3H]MPP+, percentage of control” value at human MATE1 (positive control Mate1 inhibitor, concentration not given, HEK293/hMATE1) is on record as 8.2%.
Regarding `O=c1[nH]c(=O)c2[nH]c(=O)[nH]c2[nH]1` [uric acid], the “MATE1-mediated uptake of [3H]MPP+, percentage of control” value on human MATE1 (50 μM test compound, HEK293/hMATE1 minus mock, 0.25 nM [3H]MPP+, 0.5 min, 37°C) was 102.0%; on human MATE1 (500 μM test compound, HEK293/hMATE1 minus mock, 0.25 nM [3H]MPP+, 0.5 min, 37°C) it was 100.7%. The “Inhibitory effect on MATE1-mediated MPP+ uptake” value at human MATE1 (50 and 500 μM of each) is recorded as “No inhibitory effects”. Moreover, the “MATE1-mediated uptake of MPP+, % of Control” value at human MATE1 (Uric acid 50 µM, replicates and mean) is 96.8 % of Control and 81.0 % of Control and 128.4 % of Control; at human MATE1 (Uric acid 50 µM, replicates and mean, mean), 102.0 % of Control; on human MATE1 (Uric acid 500 µM, replicates and mean), 87.8 % of Control and 117.9 % of Control and 96.4 % of Control; at human MATE1 (Uric acid 500 µM, replicates and mean, mean), 100.7 % of Control.
As for inulin, the “Inulin Clearance” value is 5.90 mL/min/kg and 7.51 mL/min/kg and 6.75 mL/min/kg in data set [3] (control rats, individual rat); 6.72 mL/min/kg in data set [3] (control rats, mean); 7.92 mL/min/kg and 4.99 mL/min/kg and 6.15 mL/min/kg and 4.14 mL/min/kg and 3.58 mL/min/kg in data set [3] (hyperuricemic rats, individual rat); 5.36 mL/min/kg in data set [3] (hyperuricemic rats, mean).
